One data set can be described thus: Maximum tolerated dose. It is filed as in vivo. To be noted: in vivo. The source says: To fully evaluate the use of ApoE analogs as therapeutic compounds, the margin of safety should also be determined. Towards that end, we determined the maximum tolerated dose of COG 112, COG 248, and COG 345 when administered by intravenous and subcutaneous injection.
Data set [1] has as its system oligodendrocyte precursor cells (OPC)/microglia mixed culture. Put plainly: LPS-induced OPC cell death in OPC/microglia mixed culture. It is filed as cell-based, rat. To be noted: 1 μM, LPS 10 ng/ml, 24 hours. The method, then: FIG. 9. COG 112 protects OPCs from LPS-induced cell death in OPC/microglia mixed culture. LPS (final conc. 10 ng/ml) was added to an OPC/microglia mixed culture with or without 1 μM COG 112. The prefix peptide of COG 112, antennapedia, was used as a negative control. Cells were fixed with 4% formaldehyde and stained with the OPC marker, NG2, and counterstained with hoescht. (A) LPS-treated cultures; (B) LPS+antennapedia (Antp)-treated cultures; (C) LPS+COG 112-treated cultures; (D) Bar graph summarizing the number of NG2+ cells per field in each condition. ** p<0.01.
FIG. 19. COG 345 promotes remyelination in lysolecithin-induced demyelination model of cerebellum slices. Significant demyelination was induced by lysolecithin (0.5 mg/ml) in cerebellar slices. COG 112 or COG 345 (1 μM) was added on day 3 when full demyelination was achieved. 4 days later, the slices were fixed and double stained with myelin marker MBP (green) and Purkinje cell marker calbindin (red). (A) Untreated-slices; (B) lysolecithin-treated slices; (C) COG 112-treated slices after lysolecithin exposure; (D) COG 345-treated slices after lysolecithin exposure. E-F. ApoE analogs protect OPCs from LPS-induced cell death in OPC/microglia mixed culture. OPCs and microglia derived from brain culture of P2 rat pups were plated in 96-well plates in 1:1 ratio. LPS (10 ng/ml) together with 1 μM of the indicated ApoE analogs was added to the cultures. After 24 hours, OPC cell death was quantified by LDH assay (E) and MTT assay (F). Statistical analysis was conducted by one-way ANOVA followed by Dunnett comparison vs. LPS group. * P<0.01, ** P<0.001, n=3.
A primary culture prepared from the brains of P2 Sprague-Dawley rat pups was grown for seven days. Microglia and OPCs were shaken off from the primary culture with an orbital shaker at 150˜200 rpm. The OPCs and microglia were plated in 24-well plates at a 1:1 ratio with 5×10^4 cells per well of each cell type. After 24 hours, LPS (final conc. 10 ng/ml) was added with or without 1 μM COG 112. The prefix peptide of COG 112, antennapedia, was used as a negative control. After incubation for 72 hours, the medium was removed and cells were fixed with 4% formaldehyde and stained with the OPC marker, NG2, and counterstained with hoescht. Five fields from each of the wells were randomly chosen to count the number of NG2-positive cells.
To further assess the ability of the novel ApoE analogs to promote remyelination, the effect of the analogs on OPC survival was assessed in an OPC/microglia mixed culture. OPC and microglia derived from primary culture of P2 rat pup brain were plated on 96-well plates in 1:1 ratio. […] After 24 hours, cell death of OPC was quantified by both LDH and MTT assays.

Data set [2] in a line: Anti-inflammatory properties in vitro or in vivo (general statement). The source says:
The following ApoE analogs, COG 112, COG 1410, COG 241, COG 248, COG 68, and COG 345, have been identified as having improved properties as compared to the ApoE peptide, COG 133.

For another data set, the target named is T1, Calcineurin (Homo sapiens, UniProt Q08209).
T1 construct: purchased BioMol AK-804
Put plainly: Cell-free calcineurin phosphatase activity assay (BioMol kit). It is filed as biochemical. To be noted: various concentrations. How it is done: FIG. 14. ApoE analogs bind directly to calcineurin and inhibit its activity. […] (B) Immunoprecipitation of human brain lysate with a biotin-COG 133 conjugate. Lane 1=markers; lane 2=clear bead; lane 3=biotin-COG 133 bead conjugate; and lane 4=10 μg lysate. (C) Immunoprecipitation of different glial cultures with a biotin-COG 133 conjugate. Lane 1=markers; lane 2=astrocyte; lane 3=microglia; and lane 4=oligodendrocyte precursor cells (OPC). Blots in B and C were probed for calcineurin (PP2B).
Calcineurin activity was measured in a cell-free in vitro assay in the presence of various concentrations of COG 133 (SEQ ID NO: 1), COG 112 (SEQ ID NO: 5), COG 68 (SEQ ID NO: 7), COG 125 (Ac-AS(Aib)LRKL(Aib)KR—COOH; SEQ ID NO: 8), or antennapedia (antp), the prefix peptide for COG 112. […] Using a BioMol Calcineurin Phosphatase Activity Kit (Cat. #AK-804), the assay was conducted according to manufacturer's instructions. […] This inhibition of calcineurin activity by ApoE analogs is mediated by a direct interaction of the ApoE analog with the phosphatase.

The test system of the next data set is microglia cell line BV2. The data set can be described thus: LPS-induced NO and TNF-α release in BV2 microglia. Format: cell-based, murine. To be noted: LPS 10 ng/ml, 24 hours. The method, then: FIG. 16. […] Series concentrations of ApoE analogs were added to culture medium together with LPS (10 ng/ml). 24 hours later, culture medium was collected for measurement of NO by Griess assay or TNF-α by ELISA. […] ApoE analogs (10 μM) were added to the cell medium of human macrophage U937 5 minutes prior to PMA+LPS treatment. The release of superoxide in culture medium was measured by Luminol assay kit (Calbiochem).
The murine microglia cell line BV2 was used as the first screening platform to compare the potency of ApoE analogs in anti-inflammatory activity. In response to LPS, BV2 produces amounts of reactive radical NO and inflammatory cytokines, such as TNF-α and IL-6. We stimulated the cells with LPS (10 ng/ml) in the presence of several concentrations of each of the ApoE analogs. We measured NO in medium by Griess assay and TNF-α by ELISA 24 hours after LPS stimulation of the cells. The IC50 value was calculated for each of the ApoE analogs.

Data set [3] has as its system PLP-induced relapsing-remitting experimental autoimmune encephalomyelitis (EAE) model. Put plainly: PLP-induced relapsing-remitting EAE model. It is filed as in vivo. Further details: CSmax during relapse (mean ± SEM) / Area under curve (mean ± SEM): scale not given here. The following applies: 4 mg/kg s.c. The method, then:
To further compare the activity of the various ApoE analogs, the efficacy of the analogs was assessed in a PLP-induced relapsing-remitting experimental autoimmune encephalomyelitis (EAE) model. […] The second dose was administered the next day followed by three times a week (M, W, F). Relapse rate represents the number of animals experiencing a relapse, while the CSmax indicates the maximal clinical score during relapse. Area under curve represents the area under the curve in a plot of clinical score vs. days post-inoculation (out to 60 days). […] The improvement in relapse rate and clinical score in the EAE model by ApoE analog treatment may be due, in part, to the remyelination-promoting effect of the ApoE analogs.

In another data set the test system is enriched OPC cultures. Put plainly: Number of mature oligodendrocytes after differentiation of enriched OPC culture. It is filed as cell-based, rat. The following applies: 2 μM COG 133, 1 μM COG 112 or 1 μM COG 68 for four days, then six days differentiation without analog. The method, then: FIG. 11. ApoE analogs increase the number of mature oligodendrocytes in culture. ApoE analogs (COG 133, COG 112, and COG 68) were added to enriched OPC culture in proliferation media for four days. Cultures were then differentiated in the absence of the ApoE analogs. Cells were labeled with a GST-π antibody to detect mature oligodendrocytes.
Since COG 112 increased the proliferation of OPCs, we next examined whether the ApoE analogs could also increase the number of mature oligodendrocytes. Enriched OPC cultures were prepared as described for the previous experiment. 2 μM COG 133 (SEQ ID NO: 1), 1 μM COG 112 (SEQ ID NO: 5), or 1 μM COG 68 (Ac-[…]-NH2; SEQ ID NO: 7) were added to the enriched OPC cultures in proliferation media for four days. The media was then replaced with differentiation medium without the ApoE analogs for an additional six days. Cells were labeled with a GST-π antibody to detect mature oligodendrocytes.

These results are taken from patent US8629242B2, “Methods of inhibiting calcineurin with ApoE analogs” (Cognosci, Inc., priority 2007, dated 2014).

Where two headings read alike, the source gives them in different places. Where a SMILES comes first, the peptide text is derived from it. [ ]: non-standard residue; d: D form. Arg(NO2) = N=C(NCCC[C@H](N)C(=O)O)N[N+](=O)[O-]; Aib = CC(C)(N)C(=O)O

As for `CC(=O)N[C@@H](CC(C)C)C(=O)N[C@@H](CCCNC(=N)N)C(=O)N[C@H](C(=O)N[C@@H](CCCNC(=N)N)C(=O)N[C@@H](CC(C)C)C(=O)N[C@@H](C)C(=O)N[C@@H](CO)C(=O)NC(C)(C)C(=O)N[C@@H](CC(C)C)C(=O)N[C@@H](CCCNC(=N)N)C(=O)N[C@@H](CCCCN)C(=O)N[C@@H](CC(C)C)C(=O)N[C@@H](CCCNC(=N)N)C(=O)N[C@@H](CCCCN)C(=O)N[C@@H](CCCNC(=N)N[N+](=O)[O-])C(=O)N[C@@H](CC(C)C)C(=O)N[C@@H](CC(C)C)C(N)=O)C(C)C` [COG 248, acetyl-LRVRLAS-Aib-LRKLRK(nitro-Arg)LL-amide] (Ac-LRVRLAS[Aib]LRKLRK[Arg(NO2)]LL-NH2), the MTD in the data set “Maximum tolerated dose” (sc, subcutaneous injection, read-out: Maximum Tolerated Dose Subcutaneous) is above 150 mg/kg; in the data set “Maximum tolerated dose” (intravenous injection, read-out: Maximum Tolerated Dose Intravenous) it was 25 mg/kg.
With `CCCCCCCCc1ccc(CCC(N)(CO)CO)cc1` [FTY720, reference compound], the “OPC cell death by LDH and MTT assays” value in data set [1] was “did not show a clear protective effect”.
Regarding “acetyl-AS-Aib-LRKL-Aib-KR-amide (Ac-AS[Aib]LRKL[Aib]KR-NH2; SMILES CC(=O)N[C@@H](C)C(=O)N[C@@H](CO)C(=O)NC(C)(C)C(=O)N[C@@H](CC(C)C)C(=O)N[C@@H](CCCNC(=N)N)C(=O)N[C@@H](CCCCN)C(=O)N[C@@H](CC(C)C)C(=O)NC(C)(C)C(=O)N[C@@H](CCCCN)C(=O)N[C@@H](CCCNC(=N)N)C(N)=O) [COG 125, reference compound]”, the anti-inflammatory properties entry in data set [2] is reported as “did not exhibit any anti-inflammatory properties”. Besides, in the data set with Calcineurin, the “inhibition of calcineurin activity” value was “Inactive”.
In the case of “acetyl-AS-Aib-LRKL-Aib-KRLL-amide [COG 1410]”, the “activity in suppression of microglia activation (NO by Griess assay, TNF-α by ELISA)” value in the data set on microglia cell line BV2 is on record as “clearly superior to that of COG 133”.
For “acetyl-Aib-LRKL-Aib-(n acetyl K)RLL-amide (Ac-[Aib]LRKL[Aib]K(Ac)RLL-NH2; SMILES CC(=O)NCCCC[C@H](NC(=O)C(C)(C)NC(=O)[C@H](CC(C)C)NC(=O)[C@H](CCCCN)NC(=O)[C@H](CCCNC(=N)N)NC(=O)[C@H](CC(C)C)NC(=O)C(C)(C)NC(C)=O)C(=O)N[C@@H](CCCNC(=N)N)C(=O)N[C@@H](CC(C)C)C(=O)N[C@@H](CC(C)C)C(N)=O) [COG 241]”, the “Area under curve (mean ± SEM)” value in data set [3] (clinical score vs days post-inoculation, out to 60 days) is reported as 13.5 ± 2.6. The “CSmax during relapse (mean ± SEM)” value in data set [3] (maximal clinical score during relapse) is given as 2.3 ± 0.8. In data set [3] (number of animals experiencing a relapse), the “Relapse Rate” value is recorded as 8/15.
For the molecule “acetyl-RRLSYSRRRFLRVRLASHLRKLRKRLL-amide (Ac-RRLSYSRRRFLRVRLASHLRKLRKRLL-NH2) [COG 68, ApoE peptide linked to the protein transduction domain SynB3]”, the “activity in suppression of microglia activation (NO by Griess assay, TNF-α by ELISA)” value with microglia cell line BV2 is reported as “clearly superior to that of COG 133”. Besides, in the data set on enriched OPC cultures, the “number of mature oligodendrocytes (GST-π)” value was “significantly increased the number of mature oligodendrocytes”. Also, the “inhibition of calcineurin activity” value with Calcineurin is “dose-dependent inhibition”.
